Consider 27 compounds from ChEMBL document CHEMBL1156829 (Proc Natl Acad Sci U S A, 2008).

Data set [1] relates to Plasmodium falciparum. Nature of the data set: NOVARTIS: Inhibition of Plasmodium falciparum 3D7 (drug-susceptible) proliferation in erythrocyte-based infection assay. The settings on record: Plasmodium falciparum, 3D7. The format is functional, organism-based.
Data set [2] concerns Plasmodium falciparum. Briefly: NOVARTIS: Inhibition of Plasmodium falciparum W2 (drug-resistant) proliferation in erythrocyte-based infection assay. The following applies: Plasmodium falciparum, W2; read-out: EC50. Type of data set: functional, organism-based.
The nature of data set [3]: NOVARTIS: Cytotoxicity against human hepatocellular carcinoma cell line (Huh7). Type of data set: toxicity, cell-based, Huh-7. The settings on record: Huh7 cells (hepatocellular carcinoma cell line).

Structures can show the parent of a compound that is named as a salt. Numbered stars: 1 amine (or outer) side, 2 acyl side, 3 side chain; on linkers, the order of the positions; unused ones are H or OH. Bridge positions count the residues as written; N and C are the ends. Square brackets hold non-standard residues; d marks the D form. Peptide text beside a SMILES is read from it. I, II: the chains in the order shown. * marks the point of attachment. ξ: configuration not given here. Actinocin(9to1) = Cc1c2oc3c(C)ccc(C(=O)[*:1])c3nc-2c(C(=O)[*:2])c(N)c1=O; X1 = CCC(=O)CC(O)C[C@@H](C)C[C@H](N[*:1])C(=O)[*:2]; Hexenoyl(2E,4S-Me) = CC[C@H](C)/C=C/C(=O)*; Leu(3R-OH) = CC(C)[C@@H](O)[C@H](N)C(=O)O; NH((S)CH(Me)CH2NMe2) = C[C@@H](CN(C)C)N*; Pro(4S-Me) = C[C@@H]1CN[C@H](C(=O)O)C1; ξNMeV = CNC(C(=O)O)C(C)C; Boc = CC(C)(C)OC(=O)*; Aib = CC(C)(N)C(=O)O; ξT = CC(O)C(N)C(=O)O; OBn = c1ccc(CO*)cc1; NHCH2CH2OH = OCCN*; ξP = O=C(O)C1CCCN1; βAla = NCCC(=O)O; Sar = CNCC(=O)O; For = O=C*

As for `O=C(c1cnn(-c2ccccc2)c1C(F)(F)F)N1CCN(c2ccnc3cc(Cl)ccc23)CC1`, the EC50 (usually the concentration needed to bring the measured effect to its halfway point) with Plasmodium falciparum [1] is 349 nM; in the data set on Plasmodium falciparum [2], 88.2 nM. Further, the CC50 (in general, the concentration at which the toxic effect on the cells reaches its halfway point) in data set [3] was greater than 100000 nM.

On to `Cc1ccn2c(NC(C)(C)CC(C)(C)C)c(-c3ccccc3OC(=O)c3ccc(Cl)cc3Cl)nc2c1`, for which the figures for the EC50 with Plasmodium falciparum [1] and in the data set with Plasmodium falciparum [2] were 728 nM and less than 8.81 nM, respectively. In data set [3], this compound showed a CC50 greater than 10000 nM.

Turning to `CC(C)CC(NC(=O)OC(C)(C)C)C(=O)NC(Cc1ccccc1)C(=O)OCc1ccccc1` (stereo not drawn) (Boc-Leu-Phe-OBn; configuration not given here), the 50% effective concentration (EC50) in the data set on Plasmodium falciparum [1] is greater than 12500 nM; with Plasmodium falciparum [2] it was 2950 nM. The compound further came in with a CC50 in data set [3] greater than 100000 nM.

For `CC(C)C[C@@H](NC(=O)[C@H](C)NC(=O)CNC(=O)[C@@H](NC=O)C(C)C)C(=O)N[C@@H](C)C(=O)N[C@@H](C(=O)N[C@H](C(=O)N[C@@H](C(=O)N[C@@H](Cc1c[nH]c2ccccc12)C(=O)N[C@H](CC(C)C)C(=O)N[C@@H](Cc1c[nH]c2ccccc12)C(=O)N[C@H](CC(C)C)C(=O)N[C@@H](Cc1c[nH]c2ccccc12)C(=O)N[C@H](CC(C)C)C(=O)N[C@@H](Cc1c[nH]c2ccccc12)C(=O)NCCO)C(C)C)C(C)C)C(C)C` (For-VGA[dL]A[dV]V[dV]W[dL]W[dL]W[dL]W-NHCH2CH2OH), the EC50 in the data set on Plasmodium falciparum [1] stood at 2890 nM; in the data set with Plasmodium falciparum [2], 2990 nM. It took 98800 nM to reach half-maximal cytotoxicity in data set [3] (CC50).

In the case of `Cc1c2oc3c(C)ccc(C(=O)NC4C(=O)N[C@@H](C(C)C)C(=O)N5CCCC5C(=O)N(C)CC(=O)N(C)C(C(C)C)C(=O)OC4C)c3nc-2c(C(=O)NC2C(=O)N[C@H](C(C)C)C(=O)N3CCCC3C(=O)N(C)CC(=O)N(C)C(C(C)C)C(=O)OC2C)c(N)c1=O` (stereo partly specified) (I: [ξT]V[ξP][Sar][ξNMeV] / II: [ξT][dV][ξP][Sar][ξNMeV]; ester I:1-I:C, II:1-II:C; linker I:N-II:N via Actinocin(9to1)), the results for the EC50 in the data set on Plasmodium falciparum [1] and in the data set on Plasmodium falciparum [2] were 25.9 nM and 20.7 nM, respectively. The same compound displayed a CC50 in data set [3] of 296 nM.

`CC(C)C[C@@H]1NC(=O)[C@@H](CC(C)C)NC(=O)[C@H](C(C)C)NC(=O)[C@H]2CSSC[C@@H](NC1=O)C(=O)N2` (cyclo(L[dC][dC]V[dL]); disulfide 2-3): the EC50 in the data set on Plasmodium falciparum [1] was greater than 1250 nM; in the data set on Plasmodium falciparum [2], 164 nM. Further, the CC50 in data set [3] was greater than 10000 nM.

For `CCC(=O)CC(O)C[C@@H](C)C[C@H](NC(=O)[C@@H]1C[C@H](C)CN1C(=O)/C=C/[C@@H](C)CC)C(=O)N[C@H](C(=O)NC(C)(C)C(=O)N[C@@H](CC(C)C)C(=O)N[C@@H](CC(C)C)C(=O)NC(C)(C)C(=O)NC(C)(C)C(=O)NCCC(=O)N[C@@H](C)CN(C)C)[C@H](O)C(C)C` (stereo partly drawn) ({Hexenoyl(2E,4S-Me)}-[Pro(4S-Me)][X1][Leu(3R-OH)][Aib]LL[Aib][Aib][βAla]-{NH((S)CH(Me)CH2NMe2)}), the EC50 came to 194 nM with Plasmodium falciparum [1] and 651 nM with Plasmodium falciparum [2]. In data set [3], this compound came in with a 50% cytotoxic concentration (CC50) of 6470 nM.

For the compound `CCCn1c(=O)c2[nH]c(C3CCCC3)nc2n(CCC)c1=O` [1,3-DIPROPYL-8-CYCLOPENTYLXANTHINE [DPCPX]], the EC50 was determined as 764 nM with Plasmodium falciparum [1] and 346 nM in the data set on Plasmodium falciparum [2]. Moreover, the CC50 in data set [3] was […].

For the compound `N/C(=N\C(=O)c1nc(Cl)c(N)nc1N)NCc1ccc(Cl)c(Cl)c1` [3',4' DICHLOROBENZAMIL], the EC50 is 89.6 nM in the data set with Plasmodium falciparum [1] and 283 nM with Plasmodium falciparum [2]. Further, the CC50 in data set [3] stood at 4590 nM.

Regarding `COc1cc([C@@H]2OC[C@@H]3[C@H]2CO[C@H]3c2cc(OC)c(O[C@@H]3O[C@H](CO)[C@@H](O)[C@H](O)[C@H]3O)c(OC)c2)cc(OC)c1O` [ACANTHOSIDE B], the figures for the EC50 in the data set with Plasmodium falciparum [1] and in the data set with Plasmodium falciparum [2] were 771 nM and 388 nM, respectively. This compound also gave a CC50 in data set [3] greater than 10000 nM.

For `CCN1CCN(Cc2ccc(-c3cc4c(N[C@H](C)c5ccccc5)ncnc4[nH]3)cc2)CC1` [AEE-788], the values for the EC50 with Plasmodium falciparum [1] and in the data set with Plasmodium falciparum [2] were 1380 nM and 28.5 nM, respectively. Also, the CC50 in data set [3] amounted to 27800 nM.

Take `CCN(CC)CCCC(C)Nc1cc(/C=C/c2ccccc2Cl)nc2cc(Cl)ccc12` (stereo unspecified) [AMINOQUINOL]: the EC50 was found to be 178 nM in the data set on Plasmodium falciparum [1] and 283 nM in the data set on Plasmodium falciparum [2]. Moreover, the CC50 in data set [3] is greater than 10000 nM.

With `COc1ccc(C[C@H]2NC[C@H](O)[C@H]2OC(C)=O)cc1` [ANISOMYCIN], the results for the EC50 in the data set with Plasmodium falciparum [1] and in the data set on Plasmodium falciparum [2] were 9.75 nM and 10.3 nM, respectively. This compound gave a half-maximal cytotoxic concentration (CC50) in data set [3] greater than 2360 nM.

Regarding `C[C@@H]1CC[C@H]2[C@@H](C)C(=O)O[C@@H]3O[C@@]4(C)CC[C@@H]1[C@]32OO4` [ARTEMISININ], the values for the EC50 in the data set on Plasmodium falciparum [1] and with Plasmodium falciparum [2] were 43 nM and 10.3 nM, respectively. Moreover, the 50% cytotoxic concentration (CC50) in data set [3] was greater than 10000 nM.

As to `C[C@H]1[C@@H](O)O[C@@H]2O[C@@]3(C)CC[C@H]4[C@H](C)CC[C@@H]1[C@@]24OO3` [ARTENIMOL], the EC50 stood at 11.8 nM in the data set on Plasmodium falciparum [1] and 7.1 nM with Plasmodium falciparum [2]. In data set [3], this compound registered a CC50 of 44900 nM.

As for `COc1ccc(CCN2CCC(Nc3nc4ccccc4n3Cc3ccc(F)cc3)CC2)cc1` [ASTEMIZOLE], the EC50 is 447 nM with Plasmodium falciparum [1] and 711 nM with Plasmodium falciparum [2]. In data set [3], half-maximal cytotoxicity (CC50) was put at 20900 nM.

For `COc1ccc2cc3[n+](cc2c1OC)CCc1cc2c(cc1-3)OCO2` [BERBERINE CHLORIDE], the EC50 in the data set with Plasmodium falciparum [1] is 218 nM; in the data set with Plasmodium falciparum [2], 442 nM. The CC50 in data set [3] is greater than 100000 nM.

For the compound `CCOC(=O)c1cnc2cc(OCC(C)C)c(OCC(C)C)cc2c1O` [BUQUINOLATE], the EC50 in the data set on Plasmodium falciparum [1] turned out to be 649 nM; in the data set on Plasmodium falciparum [2] it was 958 nM. This compound yielded a half-maximal cytotoxic concentration (CC50) in data set [3] greater than 10000 nM.

In the case of `CC[C@H]1CN2CCc3cc(OC)c(OC)cc3[C@@H]2C[C@@H]1C[C@H]1NCCc2cc(O)c(OC)cc21` [CEPHAELINE HYDROBROMIDE], the EC50 worked out at 3.61 nM in the data set with Plasmodium falciparum [1] and 4.23 nM in the data set on Plasmodium falciparum [2]. Moreover, half-maximal cytotoxicity in data set [3] (CC50) was put at 26.1 nM.

For the compound `CC1(C)N=C(N)N=C(N)N1c1ccc(Cl)cc1` [CHLORCYCLOGUANIL HYDROCHLORIDE], the EC50 came to 0.986 nM with Plasmodium falciparum [1] and 884 nM in the data set with Plasmodium falciparum [2]. This compound registered a CC50 in data set [3] of 27400 nM.

`CCN(CC)CCCC(C)Nc1ccnc2cc(Cl)ccc12` (stereo unspecified) [CHLOROQUINE]: the EC50 was found to be 2.43 nM in the data set with Plasmodium falciparum [1] and 83.7 nM with Plasmodium falciparum [2]. Further, the CC50 in data set [3] came out at 12400 nM.

Regarding `C=C[C@H]1CN2CC[C@H]1C[C@@H]2[C@@H](O)c1ccnc2ccccc12` [CINCHONINE], the EC50 in the data set on Plasmodium falciparum [1] was 95.3 nM; in the data set on Plasmodium falciparum [2], 110 nM. In addition, in data set [3], the CC50 is greater than 6250 nM.

For `CC(CCCNCCO)Nc1ccnc2cc(Cl)ccc12` (stereo unspecified) [CLETOQUINE], the EC50 with Plasmodium falciparum [1] is 26.9 nM; with Plasmodium falciparum [2] it was 736 nM. In data set [3], this compound returned a CC50 of 14000 nM.

As for `Clc1ccccc1C(c1ccccc1)(c1ccccc1)n1ccnc1` [CLOTRIMAZOLE], the concentration giving a half-maximal response (EC50) in the data set on Plasmodium falciparum [1] was 280 nM; in the data set with Plasmodium falciparum [2], 338 nM. Besides, the CC50 in data set [3] stood at 25800 nM.

As to `C[C@@H]1C[C@@H]([C@H](O)CC2CC(=O)NC(=O)C2)C(=O)[C@@H](C)C1` [CYCLOHEXIMIDE], the EC50 is 114 nM with Plasmodium falciparum [1] and 182 nM in the data set on Plasmodium falciparum [2]. The compound further came in with a half-maximal cytotoxic concentration (CC50) in data set [3] greater than 100000 nM.

In the case of `Cc1cc(N)c2ccccc2[n+]1CCCCCCCCCC[n+]1c(C)cc(N)c2ccccc21` [DEQUALINIUM CHLORIDE], the EC50 in the data set on Plasmodium falciparum [1] was 61.4 nM; in the data set on Plasmodium falciparum [2], 19.7 nM. Also, the cytotoxic concentration (CC50) in data set [3] came to 31000 nM.

On to `N[C@@H](COP(=O)(O)O)C(=O)O` [DEXFOSFOSERINE], for which the EC50 is 1080 nM in the data set with Plasmodium falciparum [1] and greater than 1060 nM in the data set with Plasmodium falciparum [2]. The compound further had a CC50 in data set [3] greater than 10000 nM.
